“And” between values parts separate entries of the source, which are not always exact repeats. Equal entries are not always repeated.
Columns and labels:
[1] = tested on: LPS-induced IL-6 production in RAW 264.7 cells; assay: IL-6 production in LPS-activated RAW 264.7 cells (ELISA); assay type: cell-based; conditions: LPS-activated RAW 264.7 cells treated with 25 µM of the compound
[2] = tested on: 60 NCI cancer cell lines panel; assay: NCI 60 cell lines panel single dose screen, whole panel; assay type: cell-based, human; conditions: single dose 10^−5 M; for inhibition at 10 µM: Homo sapiens, 60 cell, read-out: growth inhibition percentages range over the sensitive cell lines; for number of cell lines with anticancer activity out of the 60 NCI cell lines: GI higher than 10%
Procedure: (§1) Screening of the anticancer activity of the newly synthesised compounds (6a, 6c, 6d, 6e, 6j, 6l, 6m, 6n, 6o, and 6p) was performed by the US National Cancer Institute (NCI) using 60 different human tumour cell lines in accordance with standard procedures formerly reported.
(§2) In vitro anticancer screening was carried out for the selected compounds at a single dose (10^−5 M) against 60 different human tumour cell lines of nine different cancer cell types: leukaemia, lung, colon, CNS, melanoma, ovarian, renal, prostate, and breast cancers.

KM12 = assay: NCI single dose screen, KM12; assay type: cell-based; conditions: Homo sapiens; KM12, colon cancer; single dose 10^−5 M; read-out: growth inhibition percentage
Procedure: as §1, §2

SW-620 = assay: NCI single dose screen, SW-620; assay type: cell-based; conditions: Homo sapiens; SW-620, colon cancer; single dose 10^−5 M; read-out: growth inhibition percentage
Procedure: as §1, §2

SK-MEL-5 = assay: NCI single dose screen, SK-MEL-5; assay type: cell-based; conditions: Homo sapiens; SK-MEL-5, melanoma; single dose 10^−5 M; read-out: growth inhibition percentage
Procedure: as §1, §2

SMILES: CN1CN(NC(=O)Nc2ccccc2)C(=O)c2ccccc21 [Compound 6a, 1-(1-Methyl-4-oxo-1,4-dihydroquinazolin-3(2H)-yl)-3-phenylurea]
- IL-6 concentration [1]: 173.7 ± 4.77 pg/mL
- anticancer activity in the NCI 60 panel (in words) [2]: did not show any anticancer activities
- inhibition at 10 µM (KM12): < 10%
- inhibition at 10 µM (SW-620): < 10%
- inhibition at 10 µM (SK-MEL-5): < 10%

SMILES: CN1c2ccccc2C(=O)N(NC(=O)Nc2ccccc2)C1c1ccccc1 (centres unmarked) [Compound 6c, 1-(1-Methyl-4-oxo-2-phenyl-1,4-dihydroquinazolin-3(2H)-yl)-3-phenylurea]
- IL-6 concentration [1]: 468.4 ± 87.46 pg/mL
- inhibition at 10 µM (KM12): < 10%
- inhibition at 10 µM (SW-620): < 10%
- inhibition at 10 µM (SK-MEL-5): < 10%

SMILES: CN1c2ccccc2C(=O)N(NC(=O)Nc2ccccc2)C1c1ccc(F)cc1 (centres unmarked) [Compound 6d, 1-(2-(4-Fluorophenyl)-1-methyl-4-oxo-1,4-dihydroquinazolin-3(2H)-yl)-3-phenylurea]
- IL-6 concentration [1]: 358.7 ± 12.85 pg/mL
- inhibition at 10 µM (KM12): < 10%
- inhibition at 10 µM (SW-620): < 10%
- inhibition at 10 µM (SK-MEL-5): < 10%

SMILES: CN1c2ccccc2C(=O)N(NC(=O)Nc2ccccc2)C1c1ccc([N+](=O)[O-])cc1 (centres unmarked) [Compound 6e, 1-(1-Methyl-2-(4-nitrophenyl)-4-oxo-1,4-dihydroquinazolin-3(2H)-yl)-3-phenylurea]
- IL-6 concentration [1]: 198.8 ± 6.08 pg/mL
- inhibition at 10 µM (KM12): < 10%
- inhibition at 10 µM (SW-620): < 10%
- inhibition at 10 µM (SK-MEL-5): < 10%

SMILES: COc1ccc(NC(=O)NN2C(=O)c3ccccc3N(C)C2c2ccc(OC)cc2)cc1 (centres unmarked) [Compound 6j, 1-(4-Methoxyphenyl)-3-(2-(4-methoxyphenyl)-1-methyl-4-oxo-1,4-dihydroquinazolin-3(2H)-yl)urea]
- IL-6 concentration [1]: 164.6 ± 5.09 pg/mL
- inhibition at 10 µM (KM12): < 10%
- inhibition at 10 µM (SW-620): < 10%
- inhibition at 10 µM (SK-MEL-5): < 10%

SMILES: CC1N(NC(=O)Nc2ccc(F)cc2)C(=O)c2ccccc2N1C (centres unmarked) [Compound 6l, 1–(1,2-Dimethyl-4-oxo-1,4-dihydroquinazolin-3(2H)-yl)-3-(4-fluorophenyl)urea]
- IL-6 concentration [1]: 536.8 ± 3.55 pg/mL
- inhibition at 10 µM (KM12): < 10%
- inhibition at 10 µM (SW-620): < 10%
- inhibition at 10 µM (SK-MEL-5): < 10%

SMILES: CN1c2ccccc2C(=O)N(NC(=O)Nc2ccc(F)cc2)C1c1ccccc1 (centres unmarked) [Compound 6m, 1-(4-Fluorophenyl)-3-(1-methyl-4-oxo-2-phenyl-1,4-dihydroquinazolin-3(2H)-yl)urea]
- IL-6 concentration [1]: 290.7 ± 5.5 pg/mL
- inhibition at 10 µM [2]: 10.5 to 40.1%
- number of cell lines with anticancer activity out of the 60 NCI cell lines [2]: 19
- inhibition at 10 µM (KM12): < 10%
- inhibition at 10 µM (SW-620): < 10%
- inhibition at 10 µM (SK-MEL-5): 15.9%

SMILES: CN1c2ccccc2C(=O)N(NC(=O)Nc2ccc(F)cc2)C1c1ccc(F)cc1 (centres unmarked) [Compound 6n, 1-(4-Fluorophenyl)-3-(2–(4-fluorophenyl)-1-methyl-4-oxo-1,4-dihydroquinazolin-3(2H)-yl)urea]
- IL-6 concentration [1]: 535.3 ± 15.25 pg/mL
- inhibition at 10 µM [2]: 10.1 to 57.1%
- number of cell lines with anticancer activity out of the 60 NCI cell lines [2]: 32
- inhibition at 10 µM (KM12): 15.4%
- inhibition at 10 µM (SW-620): < 10%
- inhibition at 10 µM (SK-MEL-5): 20.3%

SMILES: CN1c2ccccc2C(=O)N(NC(=O)Nc2ccc(F)cc2)C1c1ccc([N+](=O)[O-])cc1 (centres unmarked) [Compound 6o, 1-(4-Fluorophenyl)-3–(1-methyl-2-(4-nitrophenyl)-4-oxo-1,4-dihydroquinazolin-3(2H)-yl)urea]
- IL-6 concentration [1]: 37.23 pg/mL and 37.23 ± 1.19 pg/mL
- inhibition at 10 µM [2]: 10.7 to 41.3%
- number of cell lines with anticancer activity out of the 60 NCI cell lines [2]: 21
- inhibition at 10 µM (KM12): < 10%
- inhibition at 10 µM (SW-620): < 10%
- inhibition at 10 µM (SK-MEL-5): 13.7%

SMILES: COc1ccc(C2N(NC(=O)Nc3ccc(F)cc3)C(=O)c3ccccc3N2C)cc1 (centres unmarked) [Compound 6p, 1-(4-Fluorophenyl)-3-(2–(4-methoxyphenyl)-1-methyl-4-oxo-1,4-dihydroquinazolin-3(2H)-yl)urea]
- IL-6 concentration [1]: 237.2 ± 3.19 pg/mL
- inhibition at 10 µM (KM12): < 10%
- inhibition at 10 µM (SW-620): < 10%
- inhibition at 10 µM (SK-MEL-5): < 10%

Reference: article PMC10114980, “Triple targeting of mutant EGFR^L858R/T790M, COX-2, and 15-LOX: design and synthesis of novel quinazolinone tethered phenyl urea derivatives for anti-inflammatory and anticancer evaluation” (Journal of Enzyme Inhibition and Medicinal Chemistry, 2023)
